Reference: article PMC12769565, “Design, synthesis and biological activity of glycoconjugated ADAMTS5 exosite inhibitors: applications in osteoarthritis and ovarian cancer models” (Scientific Reports, 2025)

Assays:
[1] = target: T1, ADAMTS5 (Homo sapiens, UniProt Q9UNA0); experiment: Versicanase assay (V1-5GAG, versikine sandwich ELISA); assay type: biochemical
T1 construct: Human recombinant full-length FLAG-tagged ADAMTS4 and ADAMTS5 were expressed in HEK293T cells; FLAG; made in house; host or cells: HEK293T cells
T1 sequence (Q9UNA0 262-930): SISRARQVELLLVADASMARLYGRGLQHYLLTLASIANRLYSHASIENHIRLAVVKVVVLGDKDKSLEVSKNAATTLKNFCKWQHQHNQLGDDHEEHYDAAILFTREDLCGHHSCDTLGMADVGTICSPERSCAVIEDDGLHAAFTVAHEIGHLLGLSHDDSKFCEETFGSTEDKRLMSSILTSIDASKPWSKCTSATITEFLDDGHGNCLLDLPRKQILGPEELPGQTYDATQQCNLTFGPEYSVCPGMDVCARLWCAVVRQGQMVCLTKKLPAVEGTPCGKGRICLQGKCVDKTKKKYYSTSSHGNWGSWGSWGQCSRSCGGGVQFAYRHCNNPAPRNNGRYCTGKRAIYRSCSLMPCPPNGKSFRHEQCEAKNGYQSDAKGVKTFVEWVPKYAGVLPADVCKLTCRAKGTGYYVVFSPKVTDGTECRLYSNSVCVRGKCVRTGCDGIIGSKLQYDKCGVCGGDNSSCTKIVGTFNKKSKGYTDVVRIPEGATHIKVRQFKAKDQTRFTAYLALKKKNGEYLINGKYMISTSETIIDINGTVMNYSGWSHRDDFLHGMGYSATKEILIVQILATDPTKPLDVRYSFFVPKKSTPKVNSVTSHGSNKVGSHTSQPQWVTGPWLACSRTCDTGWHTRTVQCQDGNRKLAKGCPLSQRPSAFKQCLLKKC
Procedure: (§1) Human recombinant full-length FLAG-tagged ADAMTS4 and ADAMTS5 were expressed in HEK293T cells (Thermo Fisher Scientific) and purified by anti-FLAG immunoaffinity chromatography as before. Concentrations of active proteases were determined by active-site titrations with known concentrations of TIMP-3 (Bio-Techne, 973-TM-010), using QF peptides as substrates. V1-5GAG, a truncated version of versican V1 isoform comprising residues 21–694 and containing a C-terminal 6x His tag[67], was expressed in HE293T cells and purified by immobilized metal affinity chromatography as before.
(§2) Compounds 1–4 (100 µM) or DMSO were incubated with ADAMTS4 (5 nM) or ADAMTS5 (0.4 nM) for 2 h at 37 °C, before addition of V1-5GAG (50 nM). At each time point, reactions were stopped by addition of ethylenediaminetetraacetic acid and ADAMTS-generated versican fragments (versikine) quantified by sandwich ELISA as before[29],[30],[38] using anti-DPEAAE neoepitope antibody (Life Technologies, PA1-1748 A, 5 µg/ml) and polyclonal anti-versican antibody (Abcam, ab171887, 3 µg/ml). For each reaction, the amount of versikine generated was derived from a standard curve (0–1.56 nM) of V1-5GAG completely digested with ADAMTS5. Initial velocities were calculated from the concentration of versikine generated as a function of reaction time. Percent of inhibition was calculated from the DMSO control reactions. IC50 values were determined using the formula: vi/v0 = 1/(1 + [I]/IC50) where vi is the initial velocity of substrate cleavage in the presence of the inhibitor at concentration [I] and v0 is the initial velocity in the presence of an equal concentration (v/v) of DMSO.

[2] = target: T2, ADAMTS4 (Homo sapiens, UniProt O75173); experiment: as above; assay type: biochemical; settings: 100 µM; compared to DMSO control
T2 construct: Human recombinant full-length FLAG-tagged ADAMTS4 and ADAMTS5 were expressed in HEK293T cells; FLAG; made in house; host or cells: HEK293T cells
T2 sequence (O75173 213-837): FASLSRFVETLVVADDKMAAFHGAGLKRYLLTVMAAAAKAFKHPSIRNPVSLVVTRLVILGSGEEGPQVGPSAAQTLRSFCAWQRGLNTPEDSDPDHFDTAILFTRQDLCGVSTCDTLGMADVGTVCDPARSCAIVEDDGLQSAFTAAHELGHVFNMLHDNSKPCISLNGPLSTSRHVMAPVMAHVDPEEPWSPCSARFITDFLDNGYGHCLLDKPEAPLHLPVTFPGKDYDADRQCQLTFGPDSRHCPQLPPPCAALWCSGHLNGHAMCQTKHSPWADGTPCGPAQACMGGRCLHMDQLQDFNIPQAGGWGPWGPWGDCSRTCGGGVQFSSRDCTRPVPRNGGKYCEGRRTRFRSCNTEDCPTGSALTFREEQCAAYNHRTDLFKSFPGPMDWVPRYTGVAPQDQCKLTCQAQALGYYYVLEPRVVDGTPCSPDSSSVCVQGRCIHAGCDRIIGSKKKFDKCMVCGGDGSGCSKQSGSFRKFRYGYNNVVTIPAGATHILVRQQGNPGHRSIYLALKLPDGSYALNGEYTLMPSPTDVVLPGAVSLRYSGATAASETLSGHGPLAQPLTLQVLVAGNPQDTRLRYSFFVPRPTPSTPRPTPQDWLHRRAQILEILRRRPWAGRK
Procedure: as §1, §2

inhibition at 100 µM ([1]; 100 µM, compared to DMSO control): 76%
IC50 of compound 2 relative to parent compound 4b (higher) ([1]; ADAMTS5 versicanase activity): ~ 4 fold
IC50 ([1]; read-out: IC50 for inhibition of ADAMTS5 versicanase activity): 35 ± 4.8 µM
inhibition of ADAMTS4 versicanase activity [2]: sparing ADAMTS4
SMILES: CCC(C)N(Cc1cn(CCCO[C@@H]2O[C@H](CO)[C@@H](O[C@@H]3O[C@H](CO)[C@H](O)[C@H](O)[C@H]3O)[C@H](O)[C@H]2NC(C)=O)nn1)S(=O)(=O)c1ccc(-c2ccccc2)cc1 (stereo partly drawn) [compound 2, N-((2R,3R,4R,5 S,6R)-2-(3-(4-((N-(sec-butyl)-[1,1’-biphenyl]-4-sulfonamido)methyl)-1H-1,2,3-triazol-1-yl)propoxy)-4-hydroxy-6-(hydroxymethyl)-5-(((2 S,3R,4 S,5R,6R)-3,4,5-trihydroxy-6-(hydroxymethyl)tetrahydro-2 H-pyran-2-yl)oxy)tetrahydro-2 H-pyran-3-yl)acetamide]
